Test results published in patent US8729017B2 (priority 2011, dated 2014).
Read-outs that look alike come from different tables or passages of the source. Each block holds one compound with its values, some of them ahead of it. Square brackets hold non-standard residues; d marks the D form. Ends that are not written are not given here. Peptide text beside a SMILES is read from it. Aib = CC(C)(N)C(=O)O

How the values were obtained:
Type in all cases: cell-based
[1] = molecular target: T1, GIP receptor (Homo sapiens, UniProt P48546); assay: in vitro agonist activity at the GIP receptor (cAMP luciferase reporter, HEK293 cells); conditions: in vitro agonist activity; for EC50: read-out: EC50 (nM) at GIP receptor
T1 construct: expressed in transfected cells; host or cells: HEK293
T1 sequence (P48546 22-466): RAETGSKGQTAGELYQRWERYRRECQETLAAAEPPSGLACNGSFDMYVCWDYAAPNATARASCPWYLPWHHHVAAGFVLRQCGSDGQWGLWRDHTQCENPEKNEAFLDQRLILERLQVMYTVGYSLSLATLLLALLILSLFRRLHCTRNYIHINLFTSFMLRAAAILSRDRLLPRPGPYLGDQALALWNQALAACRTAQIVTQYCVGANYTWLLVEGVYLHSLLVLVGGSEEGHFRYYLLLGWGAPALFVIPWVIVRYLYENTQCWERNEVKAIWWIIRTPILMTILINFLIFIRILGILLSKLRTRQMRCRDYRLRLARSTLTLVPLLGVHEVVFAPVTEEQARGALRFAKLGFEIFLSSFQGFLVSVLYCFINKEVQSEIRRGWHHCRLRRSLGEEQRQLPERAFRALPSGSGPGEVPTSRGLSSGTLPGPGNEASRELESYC
Protocol: It is understood that a lower EC50 indicates higher activity or potency at the receptor. […] The ability of each peptide to induce cAMP was measured in a firefly luciferase-based reporter assay. […] At the end of the incubation, 100 μL of LucLite luminescence substrate reagent (Perkin Elmer, Wellesley, Mass.) were added to each well. […] In some instances, the in vitro agonist activity at the GIP receptor was also tested.

[2] = molecular target: T2, glucagon receptor (Homo sapiens, UniProt P47871); assay: cAMP induction, firefly luciferase reporter assay in HEK293 cells co-transfected with the glucagon receptor; conditions: HEK293 cells, cAMP-responsive luciferase reporter, 5 hours incubation
T2 construct: expressed in transfected cells; host or cells: HEK293
T2 sequence (P47871 26-477, species assumed): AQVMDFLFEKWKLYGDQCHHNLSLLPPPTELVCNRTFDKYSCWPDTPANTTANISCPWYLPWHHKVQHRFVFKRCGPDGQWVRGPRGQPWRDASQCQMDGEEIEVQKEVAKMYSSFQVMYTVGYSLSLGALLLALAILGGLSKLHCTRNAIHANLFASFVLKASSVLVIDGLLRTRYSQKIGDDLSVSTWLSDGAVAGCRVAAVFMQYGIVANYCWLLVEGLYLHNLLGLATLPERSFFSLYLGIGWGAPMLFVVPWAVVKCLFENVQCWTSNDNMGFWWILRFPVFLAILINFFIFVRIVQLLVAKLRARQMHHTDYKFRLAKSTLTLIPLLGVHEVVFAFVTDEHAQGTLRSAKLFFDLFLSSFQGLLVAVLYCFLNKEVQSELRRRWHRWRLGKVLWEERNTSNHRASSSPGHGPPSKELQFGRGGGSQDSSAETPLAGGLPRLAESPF
Protocol: (§1) The ability of each peptide to induce cAMP was measured in a firefly luciferase-based reporter assay. […] At the end of the incubation, 100 μL of LucLite luminescence substrate reagent (Perkin Elmer, Wellesley, Mass.) were added to each well. […] In some instances, the in vitro agonist activity at the GIP receptor was also tested.

[3] = molecular target: T3, GLP-1 receptor (Homo sapiens, UniProt P43220); assay: cAMP induction, firefly luciferase reporter assay in HEK293 cells co-transfected with the GLP-1 receptor; conditions: HEK293 cells, cAMP-responsive luciferase reporter, 5 hours incubation
T3 construct: expressed in transfected cells; host or cells: HEK293
T3 sequence (P43220 24-463): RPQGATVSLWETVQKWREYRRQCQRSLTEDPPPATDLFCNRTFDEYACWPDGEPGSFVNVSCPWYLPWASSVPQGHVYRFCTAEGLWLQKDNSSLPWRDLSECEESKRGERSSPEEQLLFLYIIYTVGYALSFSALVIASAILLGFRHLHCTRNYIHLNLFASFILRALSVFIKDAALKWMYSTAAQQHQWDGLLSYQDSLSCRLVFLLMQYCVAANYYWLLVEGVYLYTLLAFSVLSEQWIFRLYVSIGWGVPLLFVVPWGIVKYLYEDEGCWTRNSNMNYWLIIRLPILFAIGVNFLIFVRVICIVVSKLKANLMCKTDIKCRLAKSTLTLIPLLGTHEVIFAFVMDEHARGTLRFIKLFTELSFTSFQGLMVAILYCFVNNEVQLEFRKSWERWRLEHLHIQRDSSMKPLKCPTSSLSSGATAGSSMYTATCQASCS
Protocol: as §1

[4] = read-out: EC50 (nM) at glucagon receptor
[5] = read-out: EC50 (nM) at GLP-1 receptor

Compound: 46 (H[Aib]QGTFTSDYSKYLD[Aib]KRA[Aib]EFVC(PEG 40 kDa)WLLDGGPSSGAPPPS-NH2) [compound 46]
EC50 (nM) at GIP receptor [1]: no activity

Compound: 47 (H[Aib]QGTFTSDYSKYLDEKRA[Aib]EFVC(PEG 40 kDa)WLLDGGPSSGAPPPS-NH2) [compound 47]
EC50 (nM) at GIP receptor [1]: no activity

Compound: 51 (H[Aib]QGTFTSDYSKYLDEKRA[Aib]EFVC(PEG 40 kDa (thioether via iodoacetyl))WLL[Aib]GGPSSGAPPPS-NH2) [compound 51]
EC50 (nM) at GIP receptor [1]: no activity

Compound: 52 (H[Aib]QGTFTSDYSKYLDEK[Aib]AKEFVC(PEG 40 kDa (thioether via iodoacetyl))WLLDT-NH2) [compound 52]
EC50 (nM) at GIP receptor [1]: no activity

Compound: CCCCCCCCCCCCCCCC(=O)N[C@@H](CCC(=O)NCCCC[C@H](NC(=O)[C@H](CC(=O)O)NC(=O)[C@H](CO)NC(=O)[C@@H](NC(=O)[C@H](Cc1ccccc1)NC(=O)[C@@H](NC(=O)CNC(=O)[C@H](CCC(N)=O)NC(=O)[C@@H](CO)NC(=O)[C@H](Cc1c[nH]cn1)NC(C)=O)[C@@H](C)O)[C@@H](C)O)C(=O)N[C@@H](CO)C(=O)N[C@@H](CCCCN)C(=O)N[C@@H](Cc1ccc(O)cc1)C(=O)N[C@@H](CC(C)C)C(=O)N[C@@H](CC(=O)O)C(=O)N[C@@H](CCC(=O)O)C(=O)N[C@@H](CCCNC(=N)N)C(=O)N[C@@H](C)C(=O)N[C@@H](C)C(=O)N[C@@H](CCC(N)=O)C(=O)N[C@@H](CC(=O)O)C(=O)N[C@@H](Cc1ccccc1)C(=O)N[C@H](C(=O)N[C@@H](CCC(N)=O)C(=O)N[C@@H](Cc1c[nH]c2ccccc12)C(=O)N[C@@H](CC(C)C)C(=O)N[C@@H](CC(C)C)C(=O)N[C@@H](CC(=O)O)C(=O)N[C@H](C(N)=O)[C@@H](C)O)C(C)C)C(=O)O [compound 21]
EC50 [2]: 0.005 nM | EC50 [3]: 0.009 nM | EC50 [1]: 4.5 nM

Compound: CC[C@H](C)[C@H](NC(=O)[C@H](Cc1ccccc1)NC(=O)[C@H](CC(C)C)NC(=O)[C@H](CCCNC(=N)N)NC(=O)[C@@H](NC(=O)[C@H](C)NC(=O)[C@H](CCC(N)=O)NC(=O)[C@H](CCC(=O)O)NC(=O)[C@H](CC(=O)O)NC(=O)[C@H](CC(C)C)NC(=O)[C@H](Cc1ccc(O)cc1)NC(=O)[C@H](CCCCN)NC(=O)[C@H](CO)NC(=O)[C@H](Cc1ccc(O)cc1)NC(=O)[C@H](CC(=O)O)NC(=O)[C@H](CO)NC(=O)[C@@H](NC(=O)[C@H](Cc1ccccc1)NC(=O)[C@@H](NC(=O)CNC(=O)[C@H](CCC(N)=O)NC(=O)[C@@H](CO)NC(=O)[C@@H](N)Cc1c[nH]cn1)[C@@H](C)O)[C@@H](C)O)C(C)C)C(=O)N[C@@H](CS)C(=O)N[C@@H](Cc1c[nH]c2ccccc12)C(=O)N[C@@H](CC(C)C)C(=O)N[C@@H](CC(C)C)C(=O)N[C@@H](CC(=O)O)C(=O)NCC(=O)NCC(=O)N1CCC[C@H]1C(=O)N[C@@H](CO)C(=O)N[C@@H](CO)C(=O)NCC(=O)N[C@@H](C)C(=O)N1CCC[C@H]1C(=O)N1CCC[C@H]1C(=O)N1CCC[C@H]1C(=O)N[C@@H](CO)C(N)=O [compound 62] (H-H[dS]QGTFTSDYSKYLDEQAVRLFICWLLDGGPSSGAPPPS-NH2; N-terminus assumed)
EC50 [2, 4]: 0.132 nM | EC50 [3, 5]: 0.006 nM

Other lines, results leading:

EC50 (nM) at GIP receptor [1]: no activity
Compound: 13 (H[Aib]QGTFTSDYSKYLDEKRA[Aib]EFVC(PEG 40 kDa)WLLDT-NH2) [compound 13]

EC50 (nM) at GIP receptor [1]: no activity
Compound: 38 (H[Aib]QGTFTSDYSKYLD[Aib]KRA[Aib]EFVC(PEG 40 kDa)WLLDT-NH2) [compound 38]

EC50 (nM) at GIP receptor [1]: no activity
Compound: 41 (H[Aib]QGTFTSDYSKYLDEKRA[Aib]EFVC(PEG 40 kDa)WLL[Aib]T-NH2) [compound 41]

EC50 (nM) at GIP receptor [1]: no activity
Compound: 45 (H[Aib]QGTFTSDYSKYLDEKRA[Aib]EFVC(PEG 40 kDa)WLLDT-OH) [compound 45]

EC50 [2]: 0.006 nM | EC50 [3]: 0.004 nM | EC50 [1]: 1.38 nM
Compound: CCCCCCCCCCCCCCCC(=O)N[C@@H](CCC(=O)NCCCC[C@H](NC(=O)[C@H](CC(=O)O)NC(=O)[C@H](CO)NC(=O)[C@@H](NC(=O)[C@H](Cc1ccccc1)NC(=O)[C@@H](NC(=O)CNC(=O)[C@H](CCC(N)=O)NC(=O)[C@@H](CO)NC(=O)CCc1c[nH]cn1)[C@@H](C)O)[C@@H](C)O)C(=O)N[C@@H](CO)C(=O)N[C@@H](CCCCN)C(=O)N[C@@H](Cc1ccc(O)cc1)C(=O)N[C@@H](CC(C)C)C(=O)N[C@@H](CC(=O)O)C(=O)N[C@@H](CCC(=O)O)C(=O)N[C@@H](CCCNC(=N)N)C(=O)N[C@@H](C)C(=O)N[C@@H](C)C(=O)N[C@@H](CCC(N)=O)C(=O)N[C@@H](CC(=O)O)C(=O)N[C@@H](Cc1ccccc1)C(=O)N[C@H](C(=O)N[C@@H](CCC(N)=O)C(=O)N[C@@H](Cc1c[nH]c2ccccc12)C(=O)N[C@@H](CC(C)C)C(=O)N[C@@H](CC(C)C)C(=O)N[C@@H](CC(=O)O)C(=O)N[C@H](C(N)=O)[C@@H](C)O)C(C)C)C(=O)O [compound 20]

EC50 [2, 4]: 0.009 nM | EC50 [3, 5]: 0.012 nM
Compound: CCCCCCCCCCCCCCCC(=O)N[C@@H](CCC(=O)NCCCC[C@H](NC(=O)[C@H](CC(=O)O)NC(=O)[C@H](CO)NC(=O)[C@@H](NC(=O)[C@H](Cc1ccccc1)NC(=O)[C@@H](NC(=O)CNC(=O)[C@H](CCC(N)=O)NC(=O)[C@@H](CO)NC(=O)[C@@H](N)Cc1c[nH]cn1)[C@@H](C)O)[C@@H](C)O)C(=O)N[C@@H](CO)C(=O)N[C@@H](CCCCN)C(=O)N[C@@H](Cc1ccc(O)cc1)C(=O)N[C@@H](CC(C)C)C(=O)N[C@@H](CC(=O)O)C(=O)N[C@@H](CCC(=O)O)C(=O)N[C@@H](CCC(N)=O)C(=O)N[C@@H](C)C(=O)N[C@@H](C)C(=O)N[C@@H](CCCCN)C(=O)N[C@@H](CCC(=O)O)C(=O)N[C@@H](Cc1ccccc1)C(=O)N[C@H](C(=O)N[C@@H](CS)C(=O)N[C@@H](Cc1c[nH]c2ccccc12)C(=O)N[C@@H](CC(C)C)C(=O)N[C@@H](CC(C)C)C(=O)N[C@@H](CC(=O)O)C(=O)N[C@H](C(N)=O)[C@@H](C)O)[C@@H](C)CC)C(=O)O [compound 64]

EC50 [2, 4]: 0.028 nM | EC50 [3, 5]: 0.024 nM
Compound: CCCCCCCCCCCCCCCC(=O)N[C@@H](CCC(=O)NCCCC[C@H](NC(=O)[C@H](CC(=O)O)NC(=O)[C@H](CO)NC(=O)[C@@H](NC(=O)[C@H](Cc1ccccc1)NC(=O)[C@@H](NC(=O)CNC(=O)[C@H](CCC(N)=O)NC(=O)[C@@H](CO)NC(=O)[C@@H](N)Cc1c[nH]cn1)[C@@H](C)O)[C@@H](C)O)C(=O)N[C@@H](CO)C(=O)N[C@@H](CCCCN)C(=O)N[C@@H](Cc1ccc(O)cc1)C(=O)N[C@@H](CC(C)C)C(=O)N[C@@H](CC(=O)O)C(=O)N[C@@H](CCC(=O)O)C(=O)N[C@@H](CCC(N)=O)C(=O)N[C@@H](C)C(=O)N[C@@H](C)C(=O)N[C@@H](CCCCN)C(=O)N[C@@H](CCC(=O)O)C(=O)N[C@@H](Cc1ccccc1)C(=O)N[C@H](C(=O)N[C@@H](CS)C(=O)N[C@@H](Cc1c[nH]c2ccccc12)C(=O)N[C@@H](CC(C)C)C(=O)N[C@@H](CC(C)C)C(=O)N[C@@H](CC(=O)O)C(=O)N[C@H](C(=O)N[C@@H](CCC(=O)O)C(N)=O)[C@@H](C)O)[C@@H](C)CC)C(=O)O [compound 65]
